Entries after “also recorded” stand apart in the source; their conditions may differ.
What was measured:
DSS treated C57Bl/6 mice = experiment: Acute model of DSS induced murine colitis (gut barrier dysfunction); format: in vivo; conditions: 3% DSS six days; for DSS induced weight loss / epithelial injury / pathology / histopathological healing (histopathological score): vs DSS+vehicle
[1] = system: IL-6-mediated activation of STAT3; experiment: HEK-Blue IL-6 reporter cell line, STAT3-responsive SEAP reporter; format: cell-based, human; conditions: control Janus kinase inhibitor at 10 μM; IL-6 2 ng/mL, 24 hours
Experimental: STAT3 activity was assessed using the HEK Blue IL-6 cell line (Invivogen). Briefly, 50,000 cells per well were seeded in triplicate in a 96-well plate 24 hours prior to the start of the assay. Bacteria supernatant or sterile bacterial medium were added to the cells at a final concentration of 10% v/v for a 60-minute pretreatment. Then recombinant human IL 6 (R&D systems) was added at a final concentration of 2 ng/mL and the cells were incubated at 37° C. for 24 hours. The ability of the supernatants to suppress IL-6 mediated STAT3 activation was compared to the Janus kinase inhibitor tofacitinib (10 μM). After 24 hours, the STAT3 regulated SEAP reporter activity was assessed using Quanti Blue solution as recommended by the manufacturer (Invivogen). Results are the average of three independent experiments. Cytotoxicity was assessed using the CellTiter-Glo® 2.0 Cell Viability Assay (Promega, Australia) as recommended by the manufacturer.

[2] = system: IL-23-mediated activation of STAT3; experiment: HEK-Blue IL-23 reporter cell line, STAT3 inducible SEAP reporter; format: cell-based, human; conditions: control Janus kinase inhibitor at 10 μM; rhIL-23 5 ng/mL, 6 hours
Experimental: Then, each seed culture broth was used to inoculate two technical replicates each generating six technical replicates from three biological replicates. The technical replicates were grown until early stationary phase and then cell free culture supernatant was harvested as previously described (Giri et al., 2019). Culture supernatants were size fractionated by passing through a 3 kDa CENTRICON® column according to the manufacturer's (Merck Millipore) instructions. To prepare A. shahii MH21-6 supernatant samples for assay, a seed culture was established from a single colony and grown until early stationary phase. Then, the seed culture broth was used to inoculate two technical replicates. […]
STAT3 activity was assessed using the HEK Blue IL-23 cell line (Invivogen). […] STAT3 regulated SEAP reporter activity was assessed using Quanti Blue solution as recommended by the manufacturer (Invivogen). […] Cytotoxicity was assessed using an MTT assay. […] Cytotoxicity was assessed by measuring absorbance at 540 nm as recommended by the manufacturer (Invitrogen, Thermo Fisher, Australia). […]
STAT3 activity was assessed using the HEK Blue IL-23 cell line (Invivogen). […] STAT3 regulated SEAP reporter activity was assessed using Quanti Blue solution as recommended by the manufacturer (Invivogen). […] Cytotoxicity was assessed using MTT assay. […]

[3] = Example 3 (G. formicilis) study

Row | Compound | DSS induced weight loss (DSS treated C57Bl/6 mice; Example 1 (A. shahii) study, daily treatment) | goblet cells (DSS treated C57Bl/6 mice; Example 1 (A. shahii) study, relative to vehicle treated control) | epithelial injury (DSS treated C57Bl/6 mice; Example 1 (A. shahii) study) | pathology / histopathological healing (histopathological score) (DSS treated C57Bl/6 mice; Example 1 (A. shahii) study) | epithelial injury (DSS treated C57Bl/6 mice; Example 2 (C. sana) study) | pathology / histopathological healing (histopathological score) (DSS treated C57Bl/6 mice; Example 2 (C. sana) study) | DSS induced weight loss (DSS treated C57Bl/6 mice; [3]) | epithelial injury (DSS treated C57Bl/6 mice; [3]) | pathology / histopathological healing (histopathological score) (DSS treated C57Bl/6 mice; [3]) | IL-6 mediated activation of STAT3 [1] | IL-23 mediated activation of STAT3 (SEAP expression) [2]
1 | C[C@]12C=CC(=O)C=C1CC[C@@H]1[C@@H]2C(=O)C[C@@]2(C)[C@H]1CC[C@]2(O)C(=O)CO [prednisone] | exacerbated the DSS induced weight loss | ameliorated | ameliorated | significant improvement in disease pathology | Neither prednisone nor F. prausnitzii A2-165 had a significant impact | Neither prednisone nor F. prausnitzii A2-165 had a significant impact | exacerbated the DSS induced weight loss | ameliorated | significant improvement in disease pathology | – | –
2 | C[C@@H]1CCN(C(=O)CC#N)C[C@@H]1N(C)c1ncnc2[nH]ccc12 [tofacitinib] | – | – | – | – | – | – | – | – | – | fully prevented | could be prevented; also recorded: inhibited IL-23 mediated SEAP expression
